Experimental findings from ChEMBL document CHEMBL3044710, “Nematodetoxic aurovertin-type metabolites from a root-knot nematode parasitic fungus Pochonia chlamydosporia” (2010) are described below.

≈ marks a conversion by molar mass, not a printed value. Calls of active or inactive are those of the source. No cut-off for these calls is given here.

By LC50 is commonly meant the concentration that kills 50% of the test population. What is called mortality is the share of the test organisms that died.

For assay [1], the system named is Meloidogyne incognita. In words: Nematodexic activity against eggs of Meloidogyne incognita (root-knot nematode) assessed as mean corrected egg hatching inhibition rate at 25 to 400 ug/ml at 28 degC measured after 7 to 13 days by normal binocular microscopic analysis. In kind it is functional.
Assay [2] concerns Panagrellus redivivus. In words: Nematodexic activity against mixed juvenile and adult stages of Panagrellus redivivus assessed as mean corrected mortality rate at 28 degC measured after 48 hr by normal binocular microscopic analysis. In kind it is functional.
The test system of assay [3] is Panagrellus redivivus. In words: Nematodexic activity against mixed juvenile and adult stages of Panagrellus redivivus assessed as disruption of internal structure, vacuole formation and residual empty somatocysts in the dead worm at 28 degC measured after 48 hr by normal binocular microscopic analysis. In kind it is functional, organism-based.
The subject of assay [4] is Meloidogyne incognita. In words: Nematodexic activity against Meloidogyne incognita (root-knot nematode) assessed as mortality at 500 mg/l after 96 hr. In kind it is functional.

Take `COc1cc(=O)oc(/C=C/C=C/C=C/[C@@H]2O[C@@]3(C)C(C)O[C@](C)([C@H]2O)[C@@H]3O)c1C` (some centres undefined): in assay [1], the “inhibition (INH)” value is reported as “<=5%”.
As to `CCC1O[C@]2(C)[C@@H](O)[C@H](/C=C/C=C/C=C/c3oc(=O)cc(OC)c3C)O[C@]1(C)[C@H]2O` (some centres undefined), in assay [1], the “inhibition (INH)” value is reported as “<=5%”.
Regarding `COc1cc(=O)oc(/C=C/C=C/C=C/C2OC3(C)C([C@H](C)O)OC(C)(C2O)C3OC(C)=O)c1C` (some centres undefined) [AUROVERTIN D], in assay [2], the median lethal concentration (LC50) was determined as 41.7 µg/mL (≈ 87.5 µM). The outcome in assay [3] was Active. For the same compound, the “inhibition (INH)” value in assay [1] is listed as “<=5%”.
Take `COc1cc(=O)oc(/C=C/C=C/C=C/C2OC3(C)C([C@H](C)O)OC(C)(C2O)C3O)c1C` (some centres undefined) [AUROVERTIN F]: in assay [2], the 50% lethal concentration (LC50) is 88.6 µg/mL (≈ 204 µM). The outcome in assay [3] was Active. Besides, in assay [1], the “inhibition (INH)” value is “<=5%”.
On to `C/C=C/[C@@H]1OC(=O)C=C[C@@H]1O` [PHOMALACTONE], for which, in assay [4], the mortality at 500 µg/mL came to 84%.
